Experimental data from patent US20240132461A1, “FLAVONE DEAZA SPERMIDINE ANALOGUES AND THEIR USE TREATING CANCER” (FLORATEK PHARMA S.A., priority 2021, published 2024).
Counter-ions that a name gives are not always drawn.

What was measured:
Panc-1 = assay: Cell viability assay, pancreatic carcinoma cell line Panc-1; format: cell-based; conditions: Homo sapiens; Panc-1 pancreatic carcinoma cell line
Protocol: (§1) Antitumor activity of the compounds and doxorubicin as a positive control was assessed by using the CellTiter-Blue Cell Viability Assay (Promega, #G8082) or CellTiter-Glow® Luminescent Cell Viability assay (Promega # G7572) according to the manufacturer's instructions. The compounds were tested at 5 or 6 concentrations in half-log increments (highest concentration 30 μM-100 μM) in duplicate or triplicate well conditions.
(§2) Tumor cells were grown at 37° C. in a humidified atmosphere with 5% CO2 in RPMI 1640 or DMEM medium, supplemented with 10% (v/v) fetal calf serum and 50 μg/ml gentamicin for up to 20 passages, and were passaged once or twice weekly. Cells were harvested using TrypLE or PBS buffer containing 1 mM EDTA, and the percentage of viable cells is determined using a CASY Model TT cell counter (OMNI Life Science). Cells were harvested from exponential phase cultures, counted and plated in 96 well flat-bottom microtiter plates at a cell density depending on the cell line's growth rate (4,000-20,000 cells/well depending on the cell line's growth rate, up to 60,000 for hematological cancer cell lines) in RPMI 1640 or DMEM medium supplemented with 10% (v/v) fetal calf serum and 50 μg/ml gentamicin (140 μl/well). Cultures were incubated at 37° C. and 5% CO2 in a humidified atmosphere. After 24 h, 10 μl of test compounds or control medium are added, and left on the cells for another 72 h. Compounds were serially diluted in DMSO, transferred in cell culture medium, and added to the assay plates. The DMSO concentration was kept constant at <0.3% v/v across the assay plate. Viability of cells was quantified by the CellTiter-Blue® cell viability assay (Promega G8081) or CellTiter-Glow® Luminescent Cell Viability assay (Promega # G7572). Fluorescence (FU) was measured by using the EnSpire® multimode plate reader (Perkin Elmer) (excitation λ=570 nm, emission λ=600 nm) or luminescent detection of ATP in viable cells was used as parameter for proliferation. Luminescence was measured with the microplate luminometer (Promega or Perkin Elmer).
(§3) Sigmoidal concentration-response curves were fitted to the data points (test-versus-control, T/C values) obtained for each tumor model using 4 parameter non-linear curve fit (Charles River DRS Datawarehouse Software) or with GraphPad prism 5.02 software. IC50 values are reported as absolute IC50 values, being the concentration of test compound at the intersection of the concentration-response curves with T/C=50%

[1] = test system: pancreatic carcinoma cell; assay: Cell viability assay, pancreatic carcinoma cell lines (summary); format: cell-based; conditions: summary of Table 12; read-out: IC50s, pancreatic carcinoma cell growth
Protocol: as §1, §2, §3

MIA-Pa-Ca-2 = assay: Cell viability assay, pancreatic carcinoma cell line MIA-Pa-Ca-2; format: cell-based; conditions: Homo sapiens, MIA PaCa-2; MIA-Pa-Ca-2 pancreatic carcinoma cell line
Protocol: as §1, §2, §3

HL-60 = assay: Cell viability assay, acute promyelocytic leukemia cell line HL-60; format: cell-based; conditions: Homo sapiens; HL-60 acute promyelocytic leukemia cell line
Protocol: as §1, §2, §3

CALU-6 = assay: Cell viability assay, non-small cell lung carcinoma cell line CALU-6; format: cell-based; conditions: Homo sapiens; CALU-6 non-small cell lung carcinoma cell line
Protocol: as §1, §2, §3

lung carcinoma cell = assay: Cell viability assay, lung carcinoma cell lines (summary); format: cell-based; conditions: summary of Tables 7A-E; read-out: IC50s, lung carcinoma cell growth
Protocol: as §1, §2, §3

[2] = In vivo maximum tolerated dose in NOG mice; conditions: for tolerability at the highest dose administered: 8-10 mg/kg i.p., daily or every other day over 8 days; for MTD at 8 days: mouse, in vivo, ip, repeated i.p. administration, MTD not reached, read-out: maximum tolerated dose (MTD), estimated
Protocol: In order to evaluate the general toxicity of selected SND compounds in an animal model, a maximum tolerated dose (MTD) in NOG mice has been undertaken. Three mice per group were treated daily or every other day over 8 days at various doses between 5 mg/kg and 10 mg/kg. Administration of the compounds was i.p. A stock solution of the compounds (40 mg/ml in DMSO) was prepared and frozen at −20° C. in aliquots for each treatment. […] Body weights were measured before each treatment. Mice were further observed for 1 week after the last treatment.

NCI-H1299 = assay: Cell viability assay, non-small cell lung carcinoma cell line NCI-H1299; format: cell-based; conditions: Homo sapiens
Protocol: as §1, §2, §3

H69AR = assay: Cell viability assay, resistant small cell lung carcinoma cell line H69AR; format: cell-based; conditions: H69AR multiple drug resistant small cell lung carcinoma cell line
Protocol: as §1, §2, §3
The multiple drug resistant cell line H69AR obtained from ATCC, was established from NCI-H69 cells that were grown in the presence of increasing concentrations of adriamycin (doxorubicin). The H69AR cell line is approximately 50-fold resistant to adriamycin as compared to the parental NCI-H69 cell line. SND141, SND142, SND143, SND146, SND147 and SND148 inhibited the resistant cell line H69AR with IC50s below 5 μM, as presented in Table 8.

SC6 = assay: PDX cytotoxicity assay, small cell lung carcinoma PDX SC6; format: cell-based
Protocol: PDX-derived cell cultures were obtained from tumors explanted from mice and isolated by mechanical and enzymatic dissociation. […] Cells were harvested and seeded in 96-wells plates at a density of 1.25 to 5×10^3 cells/well for cytotoxicity assays. Cells were incubated 48 h at 37° C. prior to addition of test molecules and vehicle (DMSO, 0.1%) at desired final concentrations. Cell viability was assessed before drugs' addition (T0) and 5 days after test molecules addition by measuring ATP cell content using CellTiter-Glo® Luminescent Cell Viability Assay (Promega) according to the manufacturer's instructions. Luciferase activity was measured on a luminometer (PerkinElmer® EnVision™). Each concentration of compounds was tested in triplicate.
Viability was calculated as a percentage of ATP value compared to vehicle treated controls.
For PDX primary cell cultures, the tumour tissue was washed with PBS containing antibiotic-antimycotic and non-tumour tissue and necrotic tumour tissues were separated. The tumour tissue was transferred to a new dish and cut into 1˜2 mm^3 fragments, resuspended in RPMI-1640 medium and centrifuged at 1,200 rpm for 6 min at room temperature. The pelleted material was resuspended with 15 mL of Tumour Cell Digestion Solution and incubated at 37° C. for 1 hour with agitation. […]

Row | IC50 (NCI-H1299) | SMILES | IC50 (Panc-1) | IC50 [1] | IC50 (MIA-Pa-Ca-2) | IC50 (lung carcinoma cell) | also measured
1 | 5.8 µM | COc1c(O)ccc2c(=O)cc(-c3ccc(CN4CCCC4)cc3)oc12 [SND163] |  |  |  |  | 
2 | 2.7 µM | COc1c(O)ccc2c(=O)cc(-c3ccc(CN(C)CCN4CCCCC4)cc3)oc12 [SND167] |  |  |  | < 20 µM | 
3 | 3.7 µM | COc1c(O)ccc2c(=O)cc(-c3ccc(CN4CCCCC4)cc3)oc12 [SND168] |  |  |  | < 20 µM | 

Second part, the compound before the results:

Row | SMILES | IC50 (NCI-H1299) | IC50 (Panc-1) | IC50 [1] | IC50 (MIA-Pa-Ca-2) | IC50 (lung carcinoma cell) | also measured
4 | COc1c(O)ccc2c(=O)cc(-c3ccc(CCCCN(C)C)cc3)oc12 [SND141, 2-(4-(4-(dimethylamino)butyl)phenyl)-7-hydroxy-8-methoxy-4H-chromen-4-one] |  | 3.91 µM | < 10 µM | 2.3 µM |  | 
5 | COc1c(O)ccc2c(=O)cc(-c3ccc(CCCCN4CCN(C)CC4)cc3)oc12 [SND142, 7-Hydroxy-8-methoxy-2-(4-(4-(4-methylpiperazin-1-yl)butyl)phenyl)-4H-chromen-4-one] | 1 µM | 1.6 µM | < 10 µM | 1 µM | < 20 µM | IC50 (HL-60): 3.48 µM; IC50 (CALU-6): 1.7 µM; tolerability at the highest dose administered [2]: well tolerated; MTD at 8 days [2]: > 10 mg/kg
6 | COc1c(O)ccc2c(=O)cc(-c3ccc(CCCCN4CCOCC4)cc3)oc12 [SND147, 7-hydroxy-8-methoxy-2-(4-(4-morpholinobutyl)phenyl)-4H-chromen-4-one] |  | 3.8 µM | < 10 µM | 2.02 µM | < 20 µM | IC50 (CALU-6): 12.2 µM; tolerability at the highest dose administered [2]: well tolerated; MTD at 8 days [2]: > 10 mg/kg; IC50 (H69AR): 2.6 µM; IC50 (H69AR; Homo sapiens, H69AR): < 5 µM
7 | CN(CCCc1ccc(-c2cc(=O)c3ccc(O)c(O)c3o2)cc1)CCN1CCCCC1 [SND171, 7,8-Dihydroxy-2-(4-(3-(methyl(2-(piperidin-1-yl)ethyl)amino)propyl)phenyl)-4H-chromen-4-one dihydrochloride] |  |  |  |  |  | IC50 (SC6): 15 µM
